Measured values reported in patent US10645930B2, “Fungicidal mixtures based on prothioconazole and a strobilurin derivative” (BASF SE, priority 2002, dated 2020).

Columns and labels:
Puccinia recondita = assay: Curative activity against brown rust of wheat (wheat seedlings cultivar Kanzler); type: in vivo; settings: 7 days
Experimental: The active compounds, separately or together, were formulated as a 10% emulsion in a mixture of 63% by weight of cyclohexanone and 27% by weight of emulsifier, and diluted with water to the desired concentration. Evaluation was carried out by determining the infected leaf areas in percent. These percentages were converted into efficacies. The efficacy (W) was determined as follows using Abbot's formula: [formula] α corresponds to the fungal infection of the treated plants in % and β corresponds to the fungal infection of the untreated (control) plants in % An efficacy of 0 means that the infection level of the treated plants corresponds to that of the untreated control plants; an efficacy of 100 means that the treated plants were not infected. The expected efficacies of the mixtures of the active compounds were determined using Colby's formula [R. S. Colby, Weeds 15, 20-22 (1967)] and compared with the observed efficacies. E=x+y−x·y/100 Colby's formula: • E expected efficacy, expressed in % of the untreated control, when using the mixture of the active compounds A and B at the concentrations a and b • x efficacy, expressed in % of the untreated control, when using the active compound A at the concentration a • y efficacy, expressed in % of the untreated control, when using the active compound B at the concentration b Leaves of wheat seedlings of the cultivar “Kanzler” grown in pots were dusted with spores of brown rust (Puccinia recondita). The pots were then placed in a chamber with high atmospheric humidity (90-95%), at 20-22° C. for 24 hours. During this time, the spores germinated and the germinal tubes penetrated into the leaf tissue. The next day, the infected plants were sprayed to runoff point with an aqueous formulation of active compound prepared from a stock solution comprising 10% of active compound, 85% of cyclohexanone and 5% of emulsifier. After the spray coating had dried on, the test plants were cultivated in a greenhouse at 20-22° C. and 65-70% relative atmospheric humidity for 7 days. Thereafter, the extent of the rust fungus development on the leaves was determined. The visually determined values for the percentage of diseased leaf areas were converted into efficacies as % of the untreated control. An efficacy of 0 means the same disease level as in the untreated control, an efficacy of 100 means a disease level of 0%. The expected efficacies for the combinations of active compounds were determined using Colby's formula mentioned above and compared with the observed efficacies.

[1] = system: Erysiphe [syn. Blumeria] graminis forma specialis. tritici; assay: Activity against mildew of wheat (protective, wheat seedlings cultivar Kanzler); type: in vivo; settings: 7 days
Experimental: The active compounds, separately or together, were formulated as a 10% emulsion in a mixture of 63% by weight of cyclohexanone and 27% by weight of emulsifier, and diluted with water to the desired concentration. Evaluation was carried out by determining the infected leaf areas in percent. These percentages were converted into efficacies. The efficacy (W) was determined as follows using Abbot's formula: [formula] α corresponds to the fungal infection of the treated plants in % and β corresponds to the fungal infection of the untreated (control) plants in % An efficacy of 0 means that the infection level of the treated plants corresponds to that of the untreated control plants; an efficacy of 100 means that the treated plants were not infected. The expected efficacies of the mixtures of the active compounds were determined using Colby's formula [R. S. Colby, Weeds 15, 20-22 (1967)] and compared with the observed efficacies. E=x+y−x·y/100 Colby's formula: • E expected efficacy, expressed in % of the untreated control, when using the mixture of the active compounds A and B at the concentrations a and b • x efficacy, expressed in % of the untreated control, when using the active compound A at the concentration a • y efficacy, expressed in % of the untreated control, when using the active compound B at the concentration b Leaves of wheat seedlings of the cultivar “Kanzler” grown in pots were sprayed to runoff point with an aqueous preparation of active compound which had been prepared from a stock solution comprising 10% of active compound, 85% of cyclohexanone. and 5% of emulsifier, and, 24 hours after the spray coating had dried on, the leaves were dusted with spores of mildew of wheat (Erysiphe [syn. Blumeria] graminis forma specialis. tritici). The test plants were then placed in a greenhouse at 20-24° C. and 60-90% relative atmospheric humidity. After 7 days, the extent of the development of the mildew was determined visually in % infection of the entire leaf area. The visually determined values for the percentage of diseased leaf areas were converted into efficacies as % of the untreated control. An efficacy of 0 means the same disease level as in the untreated control, an efficacy of 100 means a disease level of 0%. The expected efficacies for the active compound combinations were determined using Colby's formula mentioned above and compared with the observed efficacies.

[2] = 0.015 ppm active compound in the spray liquor
[3] = 0.25 ppm active compound in the spray liquor
[4] = 1 ppm active compound in the spray liquor
[5] = 0.06 ppm active compound in the spray liquor
[6] = 4 ppm active compound in the spray liquor

SMILES | Efficacy in % of the untreated control (Puccinia recondita; 0.006 ppm active compound in the spray liquor) | Efficacy in % of the untreated control (Puccinia recondita; [2]) | Efficacy in % of the untreated control (Puccinia recondita; [3]) | Efficacy in % of the untreated control (Puccinia recondita; [4]) | Efficacy in % of the untreated control [1, 2] | Efficacy in % of the untreated control [1, 5] | Efficacy in % of the untreated control [1, 3] | Efficacy in % of the untreated control [1, 4] | Efficacy in % of the untreated control [1, 6] | Efficacy in % of the untreated control (Puccinia recondita; [5])
OC(Cc1ccccc1Cl)(Cn1nc[nH]c1=S)C1(Cl)CC1 (centres unmarked) [Compound I, 2-[2-(1-chlorocyclopropyl)-3-(2-chlorophenyl)-2-hydroxypropyl]-2,4-dihydro-[1,2,4]-triazole-3-thione] | 0 % of the untreated control | 0 % of the untreated control | 0 % of the untreated control | 0 % of the untreated control | 0 % of the untreated control | 0 % of the untreated control | 0 % of the untreated control | 0 % of the untreated control | 22 % of the untreated control | –
CO/N=C(/C(=O)OC)c1ccccc1CO/N=C(\C)c1cccc(C(F)(F)F)c1 [Compound II, trifloxystrobin] | – | – | 0 % of the untreated control | – | – | 0 % of the untreated control | 22 % of the untreated control | 44 % of the untreated control | 83 % of the untreated control | 0 % of the untreated control
CO/C=C(/C(=O)OC)c1ccccc1COc1cccc(C(F)(F)F)n1 [Compound III, picoxystrobin] | – | – | 0 % of the untreated control | 33 % of the untreated control | – | – | 11 % of the untreated control | – | – | 0 % of the untreated control
COC(=O)N(OC)c1ccccc1COc1ccn(-c2ccc(Cl)cc2)n1 [Compound IV, pyraclostrobin] | – | – | 0 % of the untreated control | – | – | – | 0 % of the untreated control | 0 % of the untreated control | – | 0 % of the untreated control
